The values that follow are results of earlier work, collected in article PMC6915728 (Nature Communications, 2019).

Where two headings read alike, the source gives them in different places.

In the data set the test system is bacterial species in which the gene showed activity. The following applies: cited from earlier work.

Consider “LLGDFFRKSKEKIGKEFKRIVQRIKDFLRNLVPRTES [LL37, LL-37 human cathelicidin, human host-defense peptide; disrupts cell membrane; cluster C2]”, for which the “Gene that modulates bacterial susceptibility to the AMP” value is “pgtE and pla”. Further, the “Gene that modulates bacterial susceptibility to the AMP” value (Bordetella pertussis, ref http://www.ncbi.nlm.nih.gov/pmc/articles/PMC4136009/) is “lgmA, IgmB, IgmC”. In addition, the “Gene that modulates bacterial susceptibility to the AMP” value (Enterobacteriaceae, ref https://www.ncbi.nlm.nih.gov/pmc/articles/PMC3264287/, https://onlinelibrary.wiley.com/doi/full/10.1111/j.1348-0421.2010.00238.x, https://jb.asm.org/content/180/15/4002.full) is “ompT”. Moreover, the “Gene that modulates bacterial susceptibility to the AMP” value (Enterococcus faecalis, ref http://www.jbc.org/content/279/51/52820.full.pdf) was “sprE”. Also, for the setting “Enterococcus faecalis, ref https://www.ncbi.nlm.nih.gov/pmc/articles/PMC2976315/”, the “Gene that modulates bacterial susceptibility to the AMP” value is given as “gelE”. In addition, under “Group A Streptococcus pyogenes, ref http://www.ncbi.nlm.nih.gov/pmc/articles/PMC3241932/pdf/nihms218493.pdf”, the “Gene that modulates bacterial susceptibility to the AMP” value is “emm1”. Besides, the “Gene that modulates bacterial susceptibility to the AMP” value (Neisseria meningitidis, gene siaC, ref http://jb.asm.org/content/191/12/3861.full.pdf+html) is on record as “siaC”. The “Gene that modulates bacterial susceptibility to the AMP” value (Neisseria meningitidis, gene siaD, ref http://jb.asm.org/content/191/12/3861.full.pdf+html) is reported as “siaD”. In addition, the “Gene that modulates bacterial susceptibility to the AMP” value (Proteus mirabilis, ref http://www.ncbi.nlm.nih.gov/pmc/articles/PMC517467/pdf/0713-04.pdf) is “zapA”. In addition, the “Gene that modulates bacterial susceptibility to the AMP” value (Pseudomonas aeruginosa, ref http://portal.research.lu.se/portal/files/2657079/623699.pdf) is “lasA, IsaB”. Also, the “Gene that modulates bacterial susceptibility to the AMP” value (Salmonella typhimurium, Escherichia coli, ref https://www.ncbi.nlm.nih.gov/pmc/articles/PMC3037666/, https://www.ncbi.nlm.nih.gov/pmc/articles/PMC4808223/) was “amiA, amiC”. For the same sequence, the “Gene that modulates bacterial susceptibility to the AMP” value (Salmonella typhimurium, ref http://www.sciencedirect.com/science/article/pii/S1368764616300024) was “waaY”. For the same sequence, the “Gene that modulates bacterial susceptibility to the AMP” value (Staphylococcus aureus, ref http://aac.asm.org/content/48/12/4673.full.pdf+html) is recorded as “aur (aureolysin)”. For the same sequence, the “Gene that modulates bacterial susceptibility to the AMP” value (Staphylococcus aureus, ref http://onlinelibrary.wiley.com/doi/10.1111/j.1365-2958.2007.05986.x/epdf) is “apsS”. For the same sequence, where the note is “Streptococcus pyogenes, ref http://www.jbc.org/content/279/51/52820.full.pdf”, the “Gene that modulates bacterial susceptibility to the AMP” value is listed as “speB”.
